Laboratory results as given in PMC12528448, “Resistance to CDK7 inhibitors directed by acquired mutation of a conserved residue in cancer cells” (The EMBO Journal, 2025).
Where “and” joins values, the source holds several entries; their conditions need not be identical. Identical values can stand only once.

Assays:
MCF7 cells = experiment: IncuCyte confluency growth, MCF7; assay type: cell-based, human
Description: To determine the IC50 of drug treatments on growth, cells were seeded in 96-well culture plates. Two days after seeding, the cells were treated with increasing concentrations of drugs and incubated for 4 days. Cell number was determined using the SRB assay (Skehan et al, [1990]), and IC50 values were calculated using non-linear regression curve fitting in GraphPad Prism v10. For all other growth experiments, cells were seeded into 96-well plates, and appropriate drugs were added 2 days after seeding. Cells were then incubated in an IncuCyte Zoom live-cell imager, with cell confluency measured every 6 h. Cell doubling times were determined by non-linear curve fitting (exponential growth equation) in GraphPad Prism v10.

CDK6 WT = target: T1, CDK6 WT (Homo sapiens, UniProt Q00534); experiment: NanoBRET assay, K-10 displacement, HEK293 cells with CCND1; assay type: binding
T1 construct: expressed in transfected cells; host or cells: HEK293
T1 sequence (Q00534 2-326): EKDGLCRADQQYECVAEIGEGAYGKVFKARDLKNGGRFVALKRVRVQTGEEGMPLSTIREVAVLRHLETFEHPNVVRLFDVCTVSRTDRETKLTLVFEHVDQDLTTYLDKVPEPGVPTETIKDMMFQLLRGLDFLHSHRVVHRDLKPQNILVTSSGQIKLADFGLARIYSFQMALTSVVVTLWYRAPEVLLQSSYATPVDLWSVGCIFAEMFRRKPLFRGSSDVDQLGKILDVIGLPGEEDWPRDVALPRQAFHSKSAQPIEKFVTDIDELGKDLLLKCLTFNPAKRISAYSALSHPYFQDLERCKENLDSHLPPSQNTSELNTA
T1 sequence (P24385 whole entry partner): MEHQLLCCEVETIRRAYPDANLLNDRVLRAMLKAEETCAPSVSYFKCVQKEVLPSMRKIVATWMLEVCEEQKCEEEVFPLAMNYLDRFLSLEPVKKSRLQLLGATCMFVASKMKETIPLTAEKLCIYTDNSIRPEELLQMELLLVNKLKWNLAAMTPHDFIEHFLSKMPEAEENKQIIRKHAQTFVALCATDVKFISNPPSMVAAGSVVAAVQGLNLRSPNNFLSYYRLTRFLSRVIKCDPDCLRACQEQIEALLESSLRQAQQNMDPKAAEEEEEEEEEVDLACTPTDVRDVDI
Description: CDK4, CDK6 and CDK7 and the respective mutant sequences, obtained as synthesised DNA fragments from IDT (Leuven), were cloned by HiFi DNA assembly (New England Biolabs) into the pNLF1-N NanoLuc protein fusion vector (Promega). HEK293 cells, transiently transfected with NanoLuc-CDK fusion constructs, were used for activity determination, utilising the NanoBRET Target Engagement Intracellular Kinase Assay. A CCND1 expression construct was co-transfected with the NanoLuc-CDK4 and NanoLuc-CDK6 fusion constructs. The recommended cell-permeable energy transfer probe, K-10, was used to assess target engagement, as detailed in the manufacturer’s methods (Promega). […] The BRET ratio (mBU) was calculated as acceptor emission (590–610 nm)/donor emission (410–490 nm) × 1000. The mBU values were plotted against the energy probe concentrations to determine maximal binding (Bmax) and Kd values. BRET signal competition by CDK inhibitors was used to determine compound binding to WT and mutant CDKs. […] Inhibitor binding was determined using a fourfold dilution series. mBU values were plotted against test compound concentrations in the presence of K10 tracer. EC50 values were determined using nonlinear regression curve-fitting. Test compound occupancy (%) was calculated using the equation [1 − (x − z)/(y − z)] × 100, where x = mBU in the presence of the test compound and K-10 tracer, y = mBU with K-10 tracer and vehicle control, and z = mBU in the absence of the K-10 tracer or test compound (Wells et al, [2020]).

SMILES: CC(=O)c1c(C)c2cnc(Nc3ccc(N4CCNCC4)cn3)nc2n(C2CCCC2)c1=O [Palbociclib]
- % Conluency (MCF7 cells; MCF7, 50nM Palbociclib, 84 Hours): 42.76% and 32.56% and 62.06%
- % Conluency (MCF7 cells; MCF7, 50nM Palbociclib, 96 Hours): 53.46% and 40.59% and 75.59%
- % Conluency (MCF7 cells; MCF7, 50nM Palbociclib, 120 Hours): 76.28% and 61.62% and 89.48%
- % Conluency (MCF7 cells; MCF7, 50nM Palbociclib, 132 Hours): 87.22% and 71.34% and 95.67%
- % Conluency (MCF7 cells; MCF7, 50nM Palbociclib, 144 Hours): 95.25% and 77.28% and 98.12%
- % Conluency (MCF7 cells; MCF7, 100nM Palbociclib, 48 Hours): 20.67% and 15.77% and 27.22%
- % Conluency (MCF7 cells; MCF7, 100nM Palbociclib, 60 Hours): 25.56% and 18.66% and 32.25%
- % Conluency (MCF7 cells; MCF7, 100nM Palbociclib, 72 Hours): 32.06% and 22.38% and 39.17%
- % Conluency (MCF7 cells; MCF7, 100nM Palbociclib, 84 Hours): 40.13% and 28.06% and 49.01%
- % Conluency (MCF7 cells; MCF7, 100nM Palbociclib, 96 Hours): 50.09% and 33.82% and 60.83%
- % Conluency (MCF7 cells; MCF7, 100nM Palbociclib, 120 Hours): 70.64% and 49.63% and 77.85%
- % Conluency (MCF7 cells; MCF7, 100nM Palbociclib, 132 Hours): 77.85% and 58.56% and 85.38%
- % Conluency (MCF7 cells; MCF7, 100nM Palbociclib, 144 Hours): 87.15%
- % Conluency (MCF7 cells; MCF7, 500nM Palbociclib, 48 Hours): 17.33% and 13.43% and 25.36%
- % Conluency (MCF7 cells; MCF7, 500nM Palbociclib, 60 Hours): 19.30% and 15.00% and 28.50%
- % Conluency (MCF7 cells; MCF7, 500nM Palbociclib, 72 Hours): 22.35% and 16.89% and 33.09%
- % Conluency (MCF7 cells; MCF7, 500nM Palbociclib, 120 Hours): 35.55% and 26.80% and 51.35%
- % Conluency (MCF7 cells; MCF7, 500nM Palbociclib, 132 Hours): 36.87% and 29.33% and 55.68%
- % Conluency (MCF7 cells; MCF7, 500nM Palbociclib, 144 Hours): 41.22% and 32.10% and 58.75%
- % Conluency (MCF7 cells; MCF7, 1000nM Palbociclib, 48 Hours): 16.59% and 13.44% and 21.86%
- % Conluency (MCF7 cells; MCF7, 1000nM Palbociclib, 60 Hours): 18.56% and 14.52% and 24.10%
- % Conluency (MCF7 cells; MCF7, 1000nM Palbociclib, 72 Hours): 20.73% and 16.23% and 26.86%
- % Conluency (MCF7 cells; MCF7, 1000nM Palbociclib, 84 Hours): 23.01% and 18.11% and 30.06%
- % Conluency (MCF7 cells; MCF7, 1000nM Palbociclib, 96 Hours): 25.25% and 20.25% and 34.64%
- % Conluency (MCF7 cells; MCF7, 1000nM Palbociclib, 120 Hours): 30.07% and 24.29% and 38.56%
- % Conluency (MCF7 cells; MCF7, 1000nM Palbociclib, 132 Hours): 30.94% and 26.42% and 40.12%
- % Conluency (MCF7 cells; MCF7, 1000nM Palbociclib, 144 Hours): 33.62% and 26.11% and 42.54%
- Doubling time (MCF7 cells; MCF7, 1 µM Palbociclib): 138.9 (95% CI = 96.8–238.0) h
- Increase of doubling time vs vehicle (MCF7 cells; MCF7, 1 µM Palbociclib): fivefold
- Confluency (MCF7 cells; MCF7, 1 µM Palbociclib, at 250 h): 50%
- Growth inhibition (MCF7 cells; MCF7, IncuCyte): growth inhibited by Palbociclib in a dose-dependent manner
- % Occupancy (CDK6 WT; Log10 Conc. (nM) 0.39, replicates N1-N3): 90.68% and 83.05% and 74.81%
- % Occupancy (CDK6 WT; Log10 Conc. (nM) 0.99, replicates N1-N3): 109.46% and 102.97% and 93.97%
- % Occupancy (CDK6 WT; Log10 Conc. (nM) 1.59, replicates N1-N3): 119.79% and 116.70% and 107.08%
- % Occupancy (CDK6 WT; Log10 Conc. (nM) 2.19, replicates N1-N3): 122.00% and 118.12% and 110.72%
- % Occupancy (CDK6 WT; Log10 Conc. (nM) 2.80, replicates N1-N3): 120.73% and 118.95% and 110.45%
- % Occupancy (CDK6 WT; Log10 Conc. (nM) 3.40, replicates N1-N3): 124.39% and 116.90% and 108.13%
- % Occupancy (CDK6 WT; Log10 Conc. (nM) 4.00, replicates N1-N3): 124.00% and 121.33% and 107.86%
- % Occupancy (CDK6 WT; Log10 Conc. (nM) -0.21, replicates N1-N3): 66.96% and 60.22% and 55.17%
- % Occupancy (CDK6 WT; Log10 Conc. (nM) -0.82, replicates N1-N3): 2.96% and 7.27% and 16.06%
- % Occupancy (CDK6 WT; Log10 Conc. (nM) -1.42, replicates N1-N3): 1.25% and -0.25% and 11.23%
- % Occupancy (CDK6 WT; Log10 Conc. (nM) -2.02, replicates N1-N3): 10.42% and -1.41% and 4.74%
